Results published in patent publication US7838530B2, “Quinazoline derivatives as antiproliferative agents” (AstraZeneca AB, priority 2003, dated 2010).

Columns and labels:
KB cells = assay: EGFR driven KB cell proliferation assay, Test (b); format: cell-based; details: Homo sapiens, 96 h, EGF 1 ng/ml, incubation for 4 days, MTT
Protocol: This assay measures the ability of a test compound to inhibit the proliferation of KB cells (human naso-pharangeal carcinoma obtained from the American Type Culture Collection (ATCC).
KB cells (human naso-pharangeal carcinoma obtained from the ATCC were cultured in Dulbecco's modified Eagle's medium (DMEM) containing 10% foetal calf serum, 2 mM glutamine and non-essential amino acids at 37° C. in a 7.5% CO2 air incubator. Cells were harvested from the stock flasks using Trypsin/ethylaminediaminetetraacetic acid (EDTA). Cell density was measured using a haemocytometer and viability was calculated using trypan blue solution before being seeded at a density of 1.25×10^3 cells per well of a 96 well plate in DMEM containing 2.5% charcoal stripped serum, 1 mM glutamine and non-essential amino acids at 37° C. in 7.5% CO2 and allowed to settle for 4 hours.
Following adhesion to the plate, the cells are treated with or without EGF (final concentration of 1 ng/ml) and with or without compound at a range of concentrations in dimethylsulfoxide (DMSO) (0.1% final) before incubation for 4 days. Following the incubation period, cell numbers were determined by addition of 50 μl of 3-(4,5-Dimethylthiazol-2-yl)-2,5-diphenyltetrazolium bromide (MTT) (stock 5 mg/ml) for 2 hours. MTT solution was then tipped off, the plate gently tapped dry and the cells dissolved upon the addition of 100 μl of DMSO.
Absorbance of the solubilised cells was read at 540 nm using a Molecular Devices ThermoMax microplate reader. Inhibition of proliferation was expressed as an IC50 value. This was determined by calculation of the concentration of compound that was required to give 50% inhibition of proliferation. The range of proliferation was calculated from the positive (vehicle plus EGF) and negative (vehicle minus EGF) control values.

[1] = molecular target: T1, EGFR tyrosine kinase enzyme (Homo sapiens, UniProt P00533); assay: Protein tyrosine kinase phosphorylation assay, Test (a); format: biochemical; details: ATP at Km concentration; read-out: IC50 (nM) Test (a) (inhibition of tyrosine kinase protein phosphorylation)
T1 construct: Recombinant intracellular fragments of EGFR, erbB2 and erbB4; made in house; host or cells: baculovirus/Sf21 insect cells
Protocol: This test measures the ability of a test compound to inhibit the phosphorylation of a tyrosine containing polypeptide substrate by EGFR tyrosine kinase enzyme.
Recombinant intracellular fragments of EGFR, erbB2 and erbB4 (accession numbers X00588, X03363 and L07868 respectively) were cloned and expressed in the baculovirus/Sf21 system. Lysates were prepared from these cells by treatment with ice-cold lysis buffer (20 mM N-2-hydroxyethylpiperizine-N′-2-ethanesulfonic acid (HEPES) pH7.5, 150 mM NaCl, 10% glycerol, 1% Triton X-100, 1.5 mM MgCl2, 1 mM ethylene glycol-bis(β-aminoethyl ether) N′,N′,N′,N′-tetraacetic acid (EGTA), plus protease inhibitors and then cleared by centrifugation.
Constitutive kinase activity of the recombinant protein was determined by its ability to phosphorylate a synthetic peptide (made up of a random co-polymer of Glutamic Acid, Alanine and Tyrosine in the ratio of 6:3:1). Specifically, Maxisorb™ 96-well immunoplates were coated with synthetic peptide (0.2 μg of peptide in a 100 μl phosphate buffered saline (PBS) solution and incubated at 4° C. overnight). Plates were washed in PBS-T (phosphate buffered saline with 0.5% Tween 20) then in 50 mM HEPES pH 7.4 at room temperature to remove any excess unbound synthetic peptide. EGFR, ErbB2 or ErbB4 tyrosine kinase activity was assessed by incubation in peptide coated plates for 20 minutes at 22° C. in 100 mM HEPES pH 7.4, adenosine trisphosphate (ATP) at Km concentration for the respective enzyme, 10 mM MnCl2, 0.1 mM Na3VO4, 0.2 mM DL-dithiothreitol (DTT), 0.1% Triton X-100 with test compound in DMSO (final concentration of 2.5%). Reactions were terminated by the removal of the liquid components of the assay followed by washing of the plates with PBS-T.
The immobilised phospho-peptide product of the reaction was detected by immunological methods. Firstly, plates were incubated for 90 minutes at room temperature with anti-phosphotyrosine primary antibodies that were raised in the mouse (4G10 from Upstate Biotechnology). Following extensive washing, plates were treated with Horseradish Peroxidase ([…]) conjugated sheep anti-mouse secondary antibody (NXA931 from Amersham) for 60 minutes at room temperature. After further washing, HRP activity in each well of the plate was measured colorimetrically using 22′-Azino-di-[3-ethylbenzthiazoline sulfonate (6)] diammonium salt crystals (ABTS™ from Roche) as a substrate.
Quantification of colour development and thus enzyme activity was achieved by the measurement of absorbance at 405 nm on a Molecular Devices ThermoMax microplate reader. Kinase inhibition for a given compound was expressed as an IC50 value. This was determined by calculation of the concentration of compound that was required to give 50% inhibition of phosphorylation in this assay. The range of phosphorylation was calculated from the positive (vehicle plus ATP) and negative (vehicle minus ATP) control values.

T1 sequence (P00533 669-1210 limits assumed): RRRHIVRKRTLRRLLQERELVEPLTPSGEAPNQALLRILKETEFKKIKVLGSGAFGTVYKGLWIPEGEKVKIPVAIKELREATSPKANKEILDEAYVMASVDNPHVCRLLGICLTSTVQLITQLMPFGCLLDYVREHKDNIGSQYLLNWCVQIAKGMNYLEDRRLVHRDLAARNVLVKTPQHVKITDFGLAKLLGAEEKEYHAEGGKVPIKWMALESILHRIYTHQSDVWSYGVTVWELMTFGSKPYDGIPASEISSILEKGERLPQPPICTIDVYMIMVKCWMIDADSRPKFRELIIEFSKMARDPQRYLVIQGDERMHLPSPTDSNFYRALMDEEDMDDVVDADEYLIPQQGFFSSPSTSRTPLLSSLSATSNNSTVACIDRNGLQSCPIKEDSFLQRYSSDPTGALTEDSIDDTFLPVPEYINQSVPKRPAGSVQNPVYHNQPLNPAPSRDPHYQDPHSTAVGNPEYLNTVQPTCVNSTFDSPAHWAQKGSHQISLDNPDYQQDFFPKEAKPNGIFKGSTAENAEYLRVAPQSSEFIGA

Structure (SMILES)	IC50 (KB cells)	IC50 [1]
COc1cc2ncnc(Nc3cccc(Cl)c3F)c2cc1OC1CCN(C(=O)c2ccno2)CC1 [Compound 1, N-(3-chloro-2-fluorophenyl)-6-{[1-(isoxazol-5-ylcarbonyl)piperidin-4-yl]oxy}-7-methoxyquinazolin-4-amine]	17 nM	< 1 nM
COc1cc2ncnc(Nc3cccc(Cl)c3F)c2cc1OC1CCN(C(=O)c2ccccn2)CC1 [Compound 10, N-(3-chloro-2-fluorophenyl)-7-methoxy-6-{[1-(pyridin-2-ylcarbonyl)piperidin-4-yl]oxy}quinazolin-4-amine]	16 nM	14 nM
COc1cc2c(Nc3cccc(Cl)c3F)ncnc2cc1OC1CCN(C(=O)c2cccnc2)CC1 [Compound 34, N-(3-chloro-2-fluorophenyl)-7-{[1-(pyridin-3-ylcarbonyl)piperidin-4-yl]oxy}-6-methoxyquinazolin-4-amine]	87 nM	43 nM

Results, then the compound that gave them:

IC50 (KB cells)	IC50 [1]	Structure (SMILES)
17 nM	< 1 nM	COc1cc2ncnc(Nc3cccc(Cl)c3F)c2cc1OC1CCN(C(=O)Nc2c(C)noc2C)CC1 [Compound 96, 4-({4-[(3-Chloro-2-fluorophenyl)amino]-7-methoxyquinazolin-6-yl}oxy)-N-(3,5-dimethylisoxazol-4-yl)piperidine-1-carboxamide]
30 nM	< 1 nM	COc1cc2ncnc(Nc3cccc(Cl)c3F)c2cc1O[C@@H]1CCCN(C(=O)Cc2cccs2)C1 [Compound 60, N-(3-chloro-2-fluorophenyl)-7-methoxy-6-{[(3R)-1-(2-thienylacetyl)piperidin-3-yl]oxy}quinazolin-4-amine]
47 nM	15 nM	COc1cc2c(Nc3cccc(Cl)c3F)ncnc2cc1OC1CCN(C(=O)Cc2cc(C)no2)CC1 [Compound 33, N-(3-chloro-2-fluorophenyl)-6-methoxy-7-({1-[(3-methylisoxazol-5-yl)acetyl]piperidin-4-yl}oxy)quinazolin-4-amine]
